Results reported in patent US20170119020A1, “METHOD OF FEEDING AN ANIMAL” (CARGILL, INCORPORATED, priority 2014, published 2017).

Experiments:
Ross 308 embryos = assay: Embryonic mortality, hatchability and chick quality at hatch (Example 5); type: in vivo, chicken; conditions: for Chick length / Chick weight average / Chick weight dissected chicks / Liver weight / Relative asymmetry / YFBM (yolk free body mass) / Yolk weight: at hatch; for Chick length / Chick weight average / Chick weight dissected chicks / Liver weight / Relative asymmetry / YFBM (yolk free body mass) / Yolk weight / Egg weight EQ / Relative liver weight / Relative yolk weight / Relative chick weight: breeder diet; for Relative liver weight / Relative yolk weight: percentage of chick weight; for Relative chick weight: percentage of egg weight at EO; for Early Embryonic Mortality: E0-E7; for Mid Embryonic Mortality: E8-E18; for Late Embryonic Mortality: E19-E21
Protocol: For a period of six days, eggs were collected from the broiler breeder flock of Example 4 above. The eggs were stored based on breeder pen and storage day for an additional three days before the brooding period started. All eggs were incubated until hatch. All eggs were distributed over 24 trays and 6 blocks, with each block representing a storage day.
A total of 2160 eggs derived from the 37-38 week broiler breeders (Ross 308) of Example 4 were collected and stored in the egg storage unit of the broiler breeder facility. At the start of the incubation period, the eggs were weighed and allocated into blocks, each block representing a storage day. Each block consisted of 24 experimental units, with each experimental unit indicating a group of 15 eggs. Only intact eggs were included and eggs that were cracked, dirty or that had deformed shells were excluded from the trial.
The eggs were placed in a Nature Form NMC 2340 Incubator with automatic control of temperature and relative humidity. From E0 till E18 the eggs were placed in setter trolleys, which consist of two shelves with a capacity for 13 trays each. Each tray has three flats of 30 eggs each. During this period, the incubator start temperature was set at 37.5° C. and relative humidity at 54%.
After the setter period (E0-E18), eggs were transferred to baskets in the hatchers based on the blocking and tray structure in the setter. The eggs were placed into subdivisions of a hatching crate (per experimental unit of 15 eggs), and following tray order per block (starting with 1AO ending with 24CI). Each hatcher trolley has twelve baskets with a capacity for 180 eggs each. Eggs of tray 1-12 were placed in incubator machine 1, eggs of tray 13-24 were placed in incubator machine 2. During this period, the incubator temperature was set at 36.7° C. and relative humidity at 70%.
Group egg weights were recorded at E0. At E7 and E18, all eggs were candled and empty eggs or eggs containing dead embryos were removed (early dead E0-E7, mid dead E8-E18). At E18 eggs were transferred to the hatching baskets after candling. At hatch (E21) the number of dead chickens, late dead embryos (E19-E21) and pipped eggs were recorded. The number of hatched chickens was recorded per replicate, as well as average chick weight. […] Sex was determined by feather sexing, female chickens were euthanized by CO2 and disposed according to local regulations. Per experimental unit, five male chickens were selected for the grow-out period and allocated to broiler grower pens. Only chickens with an average body weight, completely dry, showing active movement and with a good navel score were selected. After this selection one male chicken per experimental unit was selected for dissection. Sample chickens were individually weighed and killed by cervical dislocation to measure remaining yolk-sac weights, yolk-free body mass (“YFBM”), liver weight, chick length, and shank length of both shanks. The livers were immediately placed on dry ice and after dissection stored at −20° C. for further analysis (“SOD and GSSG”). Relative asymmetry was calculated according to the following formula:
RA=(|L−R|/[(L+R)/2])×100.

sows and piglets = assay: Content of vitamins E and A in serum of sows and piglets, HPLC (Example 10); type: in vivo, pig; conditions: for Vitamin A in serum of piglets / Vitamin E in serum of piglets: piglets at 21 days
Source text: The performance following criteria were monitored during the trial: (i) Sows response criteria (actual parity, farrowing rate, culled sows—number and reasons, wean-to-mating interval, farrowing rate in the next cycle); (ii) litter response criteria (number of piglets, total, alive, stillborn, mummies; weight of piglets and litters; survival). The following biochemical (blood) criteria were monitored during the trial for the sows (mating, farrowing and weaning), piglets 21st day: (i) glutathione peroxidase (GPx) activity; (ii) superoxide dismutase (SOD) activity; (iii) total antioxidant status (TAS); (iv) vitamin E content; (v) vitamin A content.
To determine the oxidative status, the blood samples were collected from sows and piglets into tubes with lithium anticoagulant—received whole blood for analysis. At the same time blood samples were taken for blood clot. They were centrifuged (1500 rpm, 15 Temp. 4° C.) and obtained serum was pipetted into separate tubes.
The content of the TAS (total antioxidant status) were determined using the Antioxidant assay kit (Cat. No CS0790), the activity of SOD (superoxide dismutase) was determined using SOD determination kit 19160, the activity of GPx (glutathione Peroxide assai Cellular Activity Kit) Cat. No CGP1. The content of vitamins A and E by McMurray and Blanchflower 1979 (Journal of Chromatography 178, 525-531.). TAS
Serum samples (1 ml) was deproteinized with anhydrous ethanol (1 ml), extracted with 5 ml of n-hexane (Vortex 5′), then centrifuged (3000 rpm, 10′, temp. 4° C.). The resulting 4 ml of the supernatant were evaporated to dryness under nitrogen, and then dissolved in 1 ml of 96% ethanol and analyzed by high performance liquid chromatography (HPLC).
The contents of retinol and tocopherol was determined by reversed-phase high performance liquid chromatography (HPLC) with chromatograph SHIMADZU. Nucleosil C18 column is used, the carrier phase was methanol-water (95:5, v: v). The measurement was performed using a UV detector at a wavelength of 326 nm to determine the amount of retinol and a fluorescence detector (excitation wavelength—295 nm, emission wavelength—330 nM) to determine the tocopherol content. The concentration of retinol and tocopherol were calculated on the basis of the peak external standards (Sigma-Aldrich (□)-a-Tocopherol, Retinol Vitamin-A-alcohol).

[1] = Breeding, Group 2: vitamin E 50/75 mg/kg diet
[2] = Breeding, Group 3: vitamin E 100/150 mg/kg diet
[3] = Farrowing, Group 2: vitamin E 50/75 mg/kg diet
[4] = Farrowing, Group 3: vitamin E 100/150 mg/kg diet
[5] = Weaning, Group 2: vitamin E 50/75 mg/kg diet
[6] = Weaning, Group 3: vitamin E 100/150 mg/kg diet
[7] = Group 2: vitamin E 50/75 mg/kg sow diet
[8] = Group 3: vitamin E 100/150 mg/kg sow diet

Cc1c(C)c2c(c(C)c1O)CCC(C)(CCCC(C)CCCC(C)CCCC(C)C)O2 (racemic) [Vitamin E, DL-α-tocopherol]
Chick length (Ross 308 embryos; vitamin E equivalence 80 ppm): 18.3 cm
Chick weight average (Ross 308 embryos; vitamin E equivalence 80 ppm): 43.8 g
Chick weight dissected chicks (Ross 308 embryos; vitamin E equivalence 80 ppm): 42.8 g
Liver weight (Ross 308 embryos; vitamin E equivalence 80 ppm): 1.2 g
Relative asymmetry (Ross 308 embryos; vitamin E equivalence 80 ppm): 2.4%
YFBM (yolk free body mass) (Ross 308 embryos; vitamin E equivalence 80 ppm): 39.6 g
Yolk weight (Ross 308 embryos; vitamin E equivalence 80 ppm): 4.2 g
Chick length (Ross 308 embryos; vitamin E equivalence 160 ppm): 18.4 cm
Chick weight average (Ross 308 embryos; vitamin E equivalence 160 ppm): 43.7 g
Chick weight dissected chicks (Ross 308 embryos; vitamin E equivalence 160 ppm): 43.6 g
Liver weight (Ross 308 embryos; vitamin E equivalence 160 ppm): 1.2 g
Relative asymmetry (Ross 308 embryos; vitamin E equivalence 160 ppm): 2.3%
YFBM (yolk free body mass) (Ross 308 embryos; vitamin E equivalence 160 ppm): 40.6 g
Yolk weight (Ross 308 embryos; vitamin E equivalence 160 ppm): 4.2 g
Egg weight EQ (Ross 308 embryos; vitamin E equivalence 80 ppm): 62.9 g
Egg weight EQ (Ross 308 embryos; vitamin E equivalence 160 ppm): 63.0 g
Relative liver weight (Ross 308 embryos; vitamin E equivalence 80 ppm): 2.8%
Relative yolk weight (Ross 308 embryos; vitamin E equivalence 80 ppm): 9.7%
Relative liver weight (Ross 308 embryos; vitamin E equivalence 160 ppm): 2.7%
Relative yolk weight (Ross 308 embryos; vitamin E equivalence 160 ppm): 9.4%
Relative chick weight (Ross 308 embryos; vitamin E equivalence 80 ppm): 69.7%
Relative chick weight (Ross 308 embryos; vitamin E equivalence 160 ppm): 69.4%
Empty eggs (Ross 308 embryos; vitamin E equivalence 80 ppm): 1.2%
Hatchability of fertile (Ross 308 embryos; vitamin E equivalence 80 ppm): 91.8%
Hatchability of total (Ross 308 embryos; vitamin E equivalence 80 ppm): 90.6%
Total Embryonic Mortality (Ross 308 embryos; vitamin E equivalence 80 ppm): 7.7%
Early Embryonic Mortality (Ross 308 embryos; vitamin E equivalence 80 ppm): 4.0%
Mid Embryonic Mortality (Ross 308 embryos; vitamin E equivalence 80 ppm): 1.6%
Late Embryonic Mortality (Ross 308 embryos; vitamin E equivalence 80 ppm): 2.7%
Empty eggs (Ross 308 embryos; vitamin E equivalence 160 ppm): 0.0%
Hatchability of fertile (Ross 308 embryos; vitamin E equivalence 160 ppm): 90.2%
Hatchability of total (Ross 308 embryos; vitamin E equivalence 160 ppm): 90.2%
Total Embryonic Mortality (Ross 308 embryos; vitamin E equivalence 160 ppm): 8.6%
Early Embryonic Mortality (Ross 308 embryos; vitamin E equivalence 160 ppm): 6.6%
Mid Embryonic Mortality (Ross 308 embryos; vitamin E equivalence 160 ppm): 0.5%
Late Embryonic Mortality (Ross 308 embryos; vitamin E equivalence 160 ppm): 1.8%
Content of Vitamin A in the serum of sows (sows and piglets; [1]): 0.15 µg/mL
Content of Vitamin E in the serum of sows (sows and piglets; [1]): 1.09 µg/mL
Content of Vitamin A in the serum of sows (sows and piglets; [2]): 0.16 µg/mL
Content of Vitamin E in the serum of sows (sows and piglets; [2]): 1.11 µg/mL
Content of Vitamin A in the serum of sows (sows and piglets; [3]): 0.11 µg/mL
Content of Vitamin E in the serum of sows (sows and piglets; [3]): 0.74 µg/mL
Content of Vitamin A in the serum of sows (sows and piglets; [4]): 0.15 µg/mL
Content of Vitamin E in the serum of sows (sows and piglets; [4]): 1.16 µg/mL
piglet serum a-tocopherol concentrations, lactation sows fed 150 mg/kg versus 75 mg/kg vitamin E (sows and piglets; P<0.001): higher
Content of Vitamin A in the serum of sows (sows and piglets; [5]): 0.15 µg/mL
Content of Vitamin E in the serum of sows (sows and piglets; [5]): 1.02 µg/mL
Content of Vitamin A in the serum of sows (sows and piglets; [6]): 0.15 µg/mL
Content of Vitamin E in the serum of sows (sows and piglets; [6]): 1.13 µg/mL
sow serum a-tocopherol (vitamin E) concentrations when vitamin E was added to the sow diets (sows and piglets; gestation and lactation, P<0.001): higher
Vitamin A in serum of piglets (sows and piglets; [7]): 0.16 µg/mL
Vitamin E in serum of piglets (sows and piglets; [7]): 1.41 µg/mL
Vitamin A in serum of piglets (sows and piglets; [8]): 0.2 µg/mL
Vitamin E in serum of piglets (sows and piglets; [8]): 1.61 µg/mL
